ChEMBL document CHEMBL1201862, “PubChem BioAssay data set” (2004)
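Each compound was tested at five concentrations against cells in 96-well plates for 48 hours. Abbreviation: GI50, concentration required for 50% inhibition of growth.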 Activity calls are given as the source filed them. No stated cut-off is given here; in the data, active = GI50 up to about 1.1 µM and inactive = higher.

How the values were obtained:
Test in all cases: growth of human tumour cells (NCI), 48 h
NCI-H23 = tested on: NCI-H23
KM12 = tested on: KM12
MOLT-4 = tested on: MOLT-4
Malme-3M = tested on: Malme-3M
OVCAR-3 = tested on: OVCAR-3
CAKI-1 = tested on: CAKI-1
EKVX = tested on: EKVX
HL-60 = tested on: HL-60
RXF 631 = tested on: RXF 631
SNB-19 = tested on: SNB-19
A498 = tested on: A498
SW-620 = tested on: SW-620
DMS-273 = tested on: DMS-273
SN12C = tested on: SN12C
SK-MEL-5 = tested on: SK-MEL-5
NCI-H226 = tested on: NCI-H226
HCT-15 = tested on: HCT-15
SNB-75 = tested on: SNB-75
NCI-H460 = tested on: NCI-H460
HOP-92 = tested on: HOP-92
K562 = tested on: K562
OVCAR-8 = tested on: OVCAR-8
NCI-H522 = tested on: NCI-H522
786-0 = tested on: 786-0
UACC-257 = tested on: UACC-257
IGROV-1 = tested on: IGROV-1
ACHN = tested on: ACHN
UACC-62 = tested on: UACC-62
SF-295 = tested on: SF-295
HCT-116 = tested on: HCT-116
DLD-1 = tested on: DLD-1
COLO 205 = tested on: COLO 205
UO-31 = tested on: UO-31
TK-10 = tested on: TK-10
HCC 2998 = tested on: HCC 2998
LXFL 529 = tested on: LXFL 529
U-251 = tested on: U-251
SK-OV-3 = tested on: SK-OV-3
HT-29 = tested on: HT-29
RPMI-8226 = tested on: RPMI-8226
M14 = tested on: M14
LOX IMVI = tested on: LOX IMVI
SK-MEL-28 = tested on: SK-MEL-28
HOP-18 = tested on: HOP-18
CCRF-CEM = tested on: CCRF-CEM
A549 = tested on: A549
SNB-78 = tested on: SNB-78
RXF 393 = tested on: RXF 393
DMS-114 = tested on: DMS-114
SF-539 = tested on: SF-539
SR = tested on: SR
KM-20L2 = tested on: KM-20L2
OVCAR-4 = tested on: OVCAR-4

NC(CCc1ncc(-c2ccccc2)s1)C(=O)O (configuration not stated)
GI50 (NCI-H23): > 100 µM (inactive) | GI50 (KM12): > 100 µM (inactive) | GI50 (MOLT-4): > 100 µM (inactive) | GI50 (Malme-3M): > 100 µM (inactive) | GI50 (OVCAR-3): > 100 µM (inactive) | GI50 (CAKI-1): > 100 µM (inactive) | GI50 (EKVX): > 100 µM (inactive) | GI50 (HL-60): > 100 µM (inactive) | GI50 (RXF 631): > 100 µM (inactive) | GI50 (SNB-19): > 100 µM (inactive) | GI50 (A498): > 100 µM (inactive) | GI50 (SW-620): > 100 µM (inactive) | GI50 (DMS-273): > 100 µM (inactive) | GI50 (SN12C): > 100 µM (inactive) | GI50 (SK-MEL-5): > 100 µM (inactive) | GI50 (NCI-H226): 17.4 µM (inactive) | GI50 (HCT-15): > 100 µM | GI50 (SNB-75): 85.9 µM (inactive) | GI50 (NCI-H460): > 100 µM (inactive) | GI50 (HOP-92): > 100 µM (inactive) | GI50 (K562): > 100 µM (inactive) | GI50 (OVCAR-8): > 100 µM (inactive) | GI50 (NCI-H522): > 100 µM (inactive) | GI50 (786-0): > 100 µM (inactive) | GI50 (UACC-257): > 100 µM (inactive) | GI50 (IGROV-1): > 100 µM (inactive) | GI50 (ACHN): > 100 µM (inactive) | GI50 (UACC-62): > 100 µM (inactive) | GI50 (SF-295): > 100 µM (inactive) | GI50 (HCT-116): > 100 µM (inactive) | GI50 (DLD-1): > 100 µM (inactive) | GI50 (COLO 205): > 100 µM (inactive) | GI50 (UO-31): 45.3 µM (inactive) | GI50 (TK-10): > 100 µM (inactive) | GI50 (HCC 2998): > 100 µM (inactive) | GI50 (LXFL 529): > 100 µM (inactive) | GI50 (U-251): > 100 µM (inactive) | GI50 (SK-OV-3): > 100 µM (inactive) | GI50 (HT-29): > 100 µM (inactive) | GI50 (RPMI-8226): > 100 µM (inactive) | GI50 (M14): > 100 µM (inactive) | GI50 (LOX IMVI): > 100 µM (inactive) | GI50 (SK-MEL-28): > 100 µM (inactive) | GI50 (HOP-18): > 100 µM (inactive) | GI50 (CCRF-CEM): > 100 µM (inactive) | GI50 (A549): > 100 µM (inactive) | GI50 (SNB-78): > 100 µM (inactive) | GI50 (RXF 393): > 100 µM (inactive) | GI50 (DMS-114): > 100 µM (inactive) | GI50 (SF-539): > 100 µM (inactive)

CC(C)(C)OC(=O)N1N=NC2C3CC(=O)C(O3)C21 (configuration not stated)
GI50 (MOLT-4): > 100 µM (inactive) | GI50 (Malme-3M): > 100 µM (inactive) | GI50 (OVCAR-3): > 100 µM (inactive) | GI50 (CAKI-1): > 100 µM (inactive) | GI50 (EKVX): > 100 µM (inactive) | GI50 (RXF 631): > 100 µM (inactive) | GI50 (A498): > 100 µM (inactive) | GI50 (SW-620): > 100 µM (inactive) | GI50 (DMS-273): > 100 µM (inactive) | GI50 (SN12C): > 100 µM (inactive) | GI50 (SK-MEL-5): > 100 µM (inactive) | GI50 (NCI-H460): > 100 µM (inactive) | GI50 (HOP-92): > 100 µM (inactive) | GI50 (K562): > 100 µM (inactive) | GI50 (SR): > 100 µM (inactive) | GI50 (OVCAR-8): 86.1 µM (inactive) | GI50 (NCI-H522): > 100 µM (inactive) | GI50 (786-0): > 100 µM (inactive) | GI50 (UACC-257): > 10 µM (inactive) | GI50 (IGROV-1): > 100 µM (inactive) | GI50 (ACHN): > 100 µM (inactive) | GI50 (SF-295): > 100 µM (inactive) | GI50 (HCT-116): > 10 µM (inactive) | GI50 (DLD-1): > 100 µM (inactive) | GI50 (COLO 205): > 10 µM (inactive) | GI50 (UO-31): > 100 µM (inactive) | GI50 (TK-10): > 100 µM (inactive) | GI50 (LXFL 529): > 100 µM (inactive) | GI50 (KM-20L2): > 100 µM (inactive) | GI50 (RPMI-8226): > 100 µM (inactive) | GI50 (M14): > 100 µM (inactive) | GI50 (HOP-18): > 100 µM (inactive) | GI50 (CCRF-CEM): > 100 µM (inactive) | GI50 (A549): > 100 µM (inactive) | GI50 (OVCAR-4): > 10 µM (inactive) | GI50 (RXF 393): > 100 µM (inactive) | GI50 (SF-539): > 100 µM (inactive)
